# Experimental data: patent publication EP2181708A1, “Use of Valproate for reducing CHOP levels, particularly in a mammal having SCI” (Universitat Autonoma de Barcelona, priority 2008, dated 2010)
# Tests used:
# Assay type in all cases: in vivo, Sprague-Dawley rats
# [1] = tested on: ventral horn motoneurons; assay: Ventral horn neuron and motoneuron analysis (cresyl violet, NeuN) after SCI
# Method: (§1) Adult females Sprague-Dawley rats aged 11 weeks (220-250 g) were anesthetized with pentobarbital (40 mg/kg i.p.). When unresponsive, the vertebral column was exposed and a laminectomy carried out at T8-T9 levels. Rostral T7 and caudal T10 vertebral bodies were clamped with Adson stabilizing forceps, and carefully adjusted to level the spinal cord in the horizontal plane. A contusion injury was performed using the Infinite Horizon impactor device (Precision Scientific Instruments, Lexington, KY). The stainless steel impounder tip was placed at 3-4 mm above the exposed spinal cord, and then a fast impact produced applying forces of 150 or 250 kilodynes (KDyn) to the exposed spinal cord. The wound was sutured with 5-0 silk thread in the muscular plane and the skin was closed with small clips and disinfected with povidone iodine solution. Sham-operated animals received the same surgical procedure but sustained no impact injury; the spinal cord was left exposed for 5 min. The animals were maintained in a warm environment until full recovery, and received preventive antibiotic (amoxicyline) and analgesic (buprenorphine) treatment. All animals were kept under standard conditions of light and temperature and fed with food and water ad libitum. The procedures involving animals were approved by the Ethics Committee of our institution, and followed the European Communities Council Directive 86/609/EEC. […]
# Motoneurons were identified by their localization in the lateral ventral horn of spinal cord sections stained with cresyl violet and were counted following a method published elsewhere (Grossman et al, 2001) by size and morphological strict criteria. […] Only motoneurons with diameter larger than one square, i.e. ranging from 30 to 70 (m, and with a prominent nucleolus and being polygonal in shape were counted. The mean number of motoneurons per section was calculated. […]
# [2] = tested on: spinal cord; assay: Histological analysis of lesion volume, tissue sparing and myelin after SCI
# Method: Adult females Sprague-Dawley rats aged 11 weeks (220-250 g) were anesthetized with pentobarbital (40 mg/kg i.p.). When unresponsive, the vertebral column was exposed and a laminectomy carried out at T8-T9 levels. Rostral T7 and caudal T10 vertebral bodies were clamped with Adson stabilizing forceps, and carefully adjusted to level the spinal cord in the horizontal plane. A contusion injury was performed using the Infinite Horizon impactor device (Precision Scientific Instruments, Lexington, KY). The stainless steel impounder tip was placed at 3-4 mm above the exposed spinal cord, and then a fast impact produced applying forces of 150 or 250 kilodynes (KDyn) to the exposed spinal cord. The wound was sutured with 5-0 silk thread in the muscular plane and the skin was closed with small clips and disinfected with povidone iodine solution. Sham-operated animals received the same surgical procedure but sustained no impact injury; the spinal cord was left exposed for 5 min. The animals were maintained in a warm environment until full recovery, and received preventive antibiotic (amoxicyline) and analgesic (buprenorphine) treatment. All animals were kept under standard conditions of light and temperature and fed with food and water ad libitum. The procedures involving animals were approved by the Ethics Committee of our institution, and followed the European Communities Council Directive 86/609/EEC.
# VPA was intraperitoneally administered at an initial dose of 150 mg/kg by 3 h after surgery, and then a dose of 300 mg/Kg either every 24 h or every 12 h during the first week post-surgery, following by a dose of 300 mg/Kg every 24 h for the next two weeks. Groups of rats subjected to SCI or sham operation received VPA or saline injections following the same regime. Experiments were approved by the Ethics Committee at the Universitat Autònoma de Barcelona, and followed the European Communities Council Directive 86/609/EEC
# At 3 or 35 days post-surgery, rats were perfused transcardially with 4% paraformaldehyde in 0.1M phosphate buffer saline (PBS, pH 7.4). […]
# [3] = tested on: acetylated histone-3 (acetyl-H3); assay: Western blot of acetylated histone-3 in spinal cord after contusion SCI; settings: 250 Kdyn contusion, VPA every 12 h, vs SCI without VPA
# Method: as §1, with “treatment.” for “treatment. All animals were kept under standard conditions of light and temperature and fed with food and water ad libitum. The procedures involving animals were approved by the Ethics Committee of our institution, and followed the European Communities Council Directive 86/609/EEC.”
# Rats were re-anesthetised and decapitated at 3 dpo for sample preparation. […] After clearance, protein concentration was measured by the BCA method assay (BCA Protein Assay kit, Pierce). […]
# [4] = epicenter and adjacent section of the spinal cord, 35 days
smiles,measurement,setting,value
"CCCC(CCC)C(=O)O [VPA, 2-propylpentanoic acid]",lesions in the sections distal to the epicenter,"[1]; 35 days, vs saline",fewer lesions
same,length of spinal cord devoid of motoneurons,"[1]; cresyl violet sections, especially caudal side, did not reach statistical significance",A reduction
same,number of NeuN neurons,"[1]; ventral horn, distal to the epicenter",more abundant
same,extent of myelin loss,"[2]; 2 mm from the epicenter, cresyl violet and luxol fast blue, 35 dpo",markedly reduced
same,area of total tissue preserved,[2]; [4],significantly increased
same,area of white matter preserved,[2]; [4],significantly increased
same,levels of acetylated H3,[3],further increased
